# pEC50: −log10 of the molar value.
# Target: APJ receptor (Homo sapiens (Human), UniProt P35414)
# Experiment: [35S]GTPγS binding assay on membranes from CHO cells stably expressing human APJ receptor
# Assay type: biochemical
# Details: membranes of CHO cells stably expressing human APJ receptor, means of several independent experiments, read-out: Activity hAPJ SPA EC50 IP
# In short: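 EC50 values were obtained by non-linear regression of [35S]GTPγS (0.2 nM) binding after 90 min at RT, with nonspecific binding defined by 100 μM GTPγS. Reactions used human APJ–expressing CHO cell membranes on WGA PS beads in HEPES pH 7.5 buffer with 5 mM MgCl2, 200 mM NaCl, 3 μM GDP and 0.1% BSA.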
# Sequence of APJ receptor (P35414 whole entry): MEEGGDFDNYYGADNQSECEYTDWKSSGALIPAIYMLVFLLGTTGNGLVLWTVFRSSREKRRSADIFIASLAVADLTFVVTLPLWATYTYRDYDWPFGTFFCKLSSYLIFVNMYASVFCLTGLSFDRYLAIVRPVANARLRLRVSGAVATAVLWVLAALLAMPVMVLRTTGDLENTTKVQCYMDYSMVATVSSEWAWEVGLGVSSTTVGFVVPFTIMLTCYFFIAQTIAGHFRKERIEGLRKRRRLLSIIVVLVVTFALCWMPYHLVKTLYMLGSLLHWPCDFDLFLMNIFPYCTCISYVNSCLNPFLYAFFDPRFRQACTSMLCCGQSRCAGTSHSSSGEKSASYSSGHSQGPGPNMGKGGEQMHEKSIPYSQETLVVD
row,Structure (SMILES),pEC50
1,COc1cccc(OC)c1-n1c(NS(=O)(=O)[C@H](C)[C@@H](C)c2ncc(F)cn2)nnc1-c1ccc(C)o1 [Example 109.0],9.06
2,COc1cccc(OC)c1-n1c(NS(=O)(=O)[C@@H](C)[C@@H](C)c2ncc(F)cn2)nnc1-c1ccc(C)o1 [Example 110.0],9.01
3,"COc1cccc(OC)c1-n1c(NS(=O)(=O)CCc2ccc(F)cc2C#N)nnc1-c1ccc(C)o1 [Example 119.0, 2-(2-Cyano-4-fluorophenyl)-N-(4-(2,6-dimethoxyphenyl)-5-(5-methylfuran-2-yl)-4H-1,2,4-triazol-3-yl)ethanesulfonamide]",9.82
4,"COCCO[C@H](c1ncc(C)cn1)[C@H](C)S(=O)(=O)Nc1nnc(-c2ccc(C)o2)n1-c1c(OC)cccc1OC [Example 120.0, (1R,2S)—N-(4-(2,6-Dimethoxyphenyl)-5-(5-methylfuran-2-yl)-4H-1,2,4-triazol-3-yl)-1-(2-methoxyethoxy)-1-(5-methylpyrimidin-2-yl)propane-2-sulfonamide]",9.82
5,"COc1cccc(OC)c1-n1c(NS(=O)(=O)CCc2ncc(F)cn2)nnc1-c1ccc(C)o1 [Example 125.0, N-(4-(2,6-Dimethoxyphenyl)-5-(5-methylfuran-2-yl)-4H-1,2,4-triazol-3-yl)-2-(5-fluoropyrimidin-2-yl)ethanesulfonamide]",9.47
6,"CC[C@H](Cc1ncc(F)cn1)S(=O)(=O)Nc1nnc(-c2ccc(C)o2)n1-c1c(OC)cccc1OC [Example 128.0, (R)-N-(4-(2,6-dimethoxyphenyl)-5-(5-methylfuran-2-yl)-4H-1,2,4-triazol-3-yl)-1-(5-fluoropyrimidin-2-yl)butane-2-sulfonamide and (R)-N-(4-(2,6-dimethoxyphenyl)-5-(5-methylfuran-2-yl)-4H-1,2,4-triazol-3-yl)-1-(5-fluoropyrimidin-2-yl)butane-2-sulfonamide]",8.96
7,"COc1cccc(OC)c1-n1c(NS(=O)(=O)CCc2ccc(F)cc2C#N)nnc1-c1ccc(C(F)(F)F)o1 [Example 131.0, 2-(2-Cyano-4-fluorophenyl)-N-(4-(2,6-dimethoxyphenyl)-5-(5-(trifluoromethyl)furan-2-yl)-4H-1,2,4-triazol-3-yl)ethanesulfonamide]",8.41
8,"COc1cccc(OC)c1-n1c(NS(=O)(=O)[C@@H](C)[C@H](C)c2cnc(C)cn2)nnc1-c1ccc(C)o1 [Example 148.0, (2S,3R)—N-(4-(2,6-Dimethoxyphenyl)-5-(5-methyl-2-furanyl)-4H-1,2,4-triazol-3-yl)-3-(5-methyl-2-pyrazinyl)-2-butanesulfonamide]",9.72
9,"CCOC(=O)[C@@H]1C[C@@H](S(=O)(=O)Nc2nnc(-c3ccco3)n2-c2c(OC)cccc2OC)CN(c2ncc(F)cn2)C1 [Example 158.0, Ethyl (3R,5R)-5-((4-(2,6-dimethoxyphenyl)-5-(2-furanyl)-4H-1,2,4-triazol-3-yl)sulfamoyl)-1-(5-fluoro-2-pyrimidinyl)-3-piperidinecarboxylate or ethyl (3S,5S)-5-((4-(2,6-dimethoxyphenyl)-5-(2-furanyl)-4H-1,2,4-triazol-3-yl)sulfamoyl)-1-(5-fluoro-2-pyrimidinyl)-3-piperidinecarboxylate]",9.40
10,"COc1ccccc1-n1c(NS(=O)(=O)[C@@H](C)[C@H](C)c2ncc(F)cn2)nnc1-c1ccc(C)o1 [Example 172.0, (2S,3R)-3-(5-Fluoro-2-pyrimidinyl)-N-(4-(2-methoxyphenyl)-5-(5-methyl-2-furanyl)-4H-1,2,4-triazol-3-yl)-2-butanesulfonamide]",8.92
11,"Cc1ccc(-c2nnc(NS(=O)(=O)[C@@H](C)[C@H](C)c3ncc(F)cn3)n2C2CCOCC2)o1 [Example 182.0, (2S,3R)-3-(5-Fluoro-2-pyrimidinyl)-N-(5-(5-methyl-2-furanyl)-4-(tetrahydro-2H-pyran-4-yl)-4H-1,2,4-triazol-3-yl)-2-butanesulfonamide]",7.59
12,"COc1c(Br)cc(Br)c(OC)c1-n1c(NS(=O)(=O)[C@@H](C)[C@H](C)c2ncc(F)cn2)nnc1-c1ccc(C)o1 [Example 189.0, (2S,3R)—N-(4-(3,5-Dibromo-2,6-dimethoxyphenyl)-5-(5-methyl-2-furanyl)-4H-1,2,4-triazol-3-yl)-3-(5-fluoro-2-pyrimidinyl)-2-butanesulfonamide]",6.96
13,"COc1cccc(OC)c1-n1c(NS(=O)(=O)[C@H]2CCCN(c3ncc(F)cn3)C2)nnc1-c1ccco1 [Example 206.0, (3S)—N-(4-(2,6-Dimethoxyphenyl)-5-(2-furanyl)-4H-1,2,4-triazol-3-yl)-1-(5-fluoro-2-pyrimidinyl)-3-piperidinesulfonamide]",8.32
14,"COc1cccc(OC)c1-n1c(NS(=O)(=O)[C@H](C)[C@@H](O)c2ncc(F)cn2)nnc1-c1ccc(C)o1 [Example 211.0, (1S,2R)-N-(4-(2,6-dimethoxyphenyl)-5-(5-methylfuran-2-yl)-4H-1,2,4-triazol-3-yl)-1-(5-fluoropyrimidin-2-yl)-1-hydroxypropane-2-sulfonamide]",8.39
15,"COc1cccc(OC)c1-n1c(NS(=O)(=O)CCc2ncc(Cl)cc2C2=CCN(C)CC2)nnc1-c1ccco1 [Example 214.0, 2-(5-Chloro-1′-methyl-1′,2′,3′,6′-tetrahydro-3,4′-bipyridin-2-yl)-N-(4-(2,6-dimethoxyphenyl)-5-(2-furanyl)-4H-1,2,4-triazol-3-yl)ethanesulfonamide]",9.68
16,"COc1cccc(OC)c1-n1c(NS(=O)(=O)CCc2ncc(Cl)cc2C2=CCOCC2)nnc1-c1ccco1 [Example 215.0, 2-(5-Chloro-3-(3,6-dihydro-2H-pyran-4-yl)-2-pyridinyl)-N-(4-(2,6-dimethoxyphenyl)-5-(2-furanyl)-4H-1,2,4-triazol-3-yl)ethanesulfonamide]",9.66
17,"COc1cccc(OC)c1-n1c(NS(=O)(=O)CCc2ncc(Cl)cc2CN2CCOCC2)nnc1-c1ccco1 [Example 219.0, 2-(5-Chloro-3-(4-morpholinylmethyl)-2-pyridinyl)-N-(4-(2,6-dimethoxyphenyl)-5-(2-furanyl)-4H-1,2,4-triazol-3-yl)ethanesulfonamide]",9.59
18,"COc1cccc(OC)c1-n1c(NS(=O)(=O)CCc2ncc(Cl)cc2C2=CCNCC2)nnc1-c1ccco1 [Example 220.0, 2-(5-Chloro-1′,2′,3′,6′-tetrahydro-3,4′-bipyridin-2-yl)-N-(4-(2,6-dimethoxyphenyl)-5-(2-furanyl)-4H-1,2,4-triazol-3-yl)ethanesulfonamide]",9.57
19,"COc1cccc(OC)c1-n1c(NS(=O)(=O)CCc2ncc(Cl)cc2-c2cccnc2)nnc1-c1ccco1 [Example 221.0, 2-(5-Chloro-3,3′-bipyridin-2-yl)-N-(4-(2,6-dimethoxyphenyl)-5-(2-furanyl)-4H-1,2,4-triazol-3-yl)ethanesulfonamide]",9.52
20,"COc1cccc(OC)c1-n1c(NS(=O)(=O)CCc2ncc(Cl)cc2-c2ccncc2)nnc1-c1ccco1 [Example 222.0, 2-(5-chloro-3,4′-bipyridin-2-yl)-N-(4-(2,6-dimethoxyphenyl)-5-(2-furanyl)-4H-1,2,4-triazol-3-yl)ethanesulfonamide]",9.51
21,"COc1cccc(OC)c1-n1c(NS(=O)(=O)CCc2ncc(Cl)cc2-c2cc[nH]n2)nnc1-c1ccco1 [Example 223.0, 2-(5-chloro-3-(1H-pyrazol-3-yl)-2-pyridinyl)-N-(4-(2,6-dimethoxyphenyl)-5-(2-furanyl)-4H-1,2,4-triazol-3-yl)ethanesulfonamide]",9.49
22,"COc1cccc(OC)c1-n1c(NS(=O)(=O)CCc2ncc(Cl)cc2CCN2CCCC2)nnc1-c1ccco1 [Example 232.0, 2-(5-Chloro-3-(2-(1-pyrrolidinyl)ethyl)-2-pyridinyl)-N-(4-(2,6-dimethoxyphenyl)-5-(2-furanyl)-4H-1,2,4-triazol-3-yl)ethanesulfonamide]",9.35
23,"COc1cccc(OC)c1-n1c(NS(=O)(=O)CCc2ncc(Cl)cc2CCN2CCC2)nnc1-c1ccco1 [Example 235.0, 2-(3-(2-(1-Azetidinyl)ethyl)-5-chloro-2-pyridinyl)-N-(4-(2,6-dimethoxyphenyl)-5-(2-furanyl)-4H-1,2,4-triazol-3-yl)ethanesulfonamide]",9.25
24,"COc1cccc(OC)c1-n1c(NS(=O)(=O)CCc2ncc(Cl)cc2CCN2CC[C@H](O)C2)nnc1-c1ccco1 [Example 238.0, 2-(5-Chloro-3-(2-((3S)-3-hydroxy-1-pyrrolidinyl)ethyl)-2-pyridinyl)-N-(4-(2,6-dimethoxyphenyl)-5-(2-furanyl)-4H-1,2,4-triazol-3-yl)ethanesulfonamide]",9.23
25,"COc1cccc(OC)c1-n1c(NS(=O)(=O)CCc2ncc(Cl)cc2CCN2CCOCC2)nnc1-c1ccco1 [Example 239.0, 2-(5-Chloro-3-(2-(4-morpholinyl)ethyl)-2-pyridinyl)-N-(4-(2,6-dimethoxyphenyl)-5-(2-furanyl)-4H-1,2,4-triazol-3-yl)ethanesulfonamide]",9.22
26,"COc1cccc(OC)c1-n1c(NS(=O)(=O)[C@@H](C)[C@@](C)(O)c2ncc(F)cn2)nnc1-c1ccc(C)o1 [Example 242.0, (2S,3S)—N-(4-(2,6-Dimethoxyphenyl)-5-(5-methyl-2-furanyl)-4H-1,2,4-triazol-3-yl)-3-(5-fluoro-2-pyrimidinyl)-3-hydroxy-2-butanesulfonamide]",9.09
27,"COc1ncnc(OC)c1-n1c(NS(=O)(=O)CCc2ccc(F)cc2C#N)nnc1-c1ccco1 [Example 252.0, 2-(2-Cyano-4-fluorophenyl)-N-(4-(4,6-dimethoxy-5-pyrimidinyl)-5-(2-furanyl)-4H-1,2,4-triazol-3-yl)ethanesulfonamide]",8.01
28,"COc1ncnc(OC)c1-n1c(NS(=O)(=O)CCc2ccc(Cl)cc2)nnc1-c1ccco1 [Example 253.0, 2-(4-Chlorophenyl)-N-(4-(4,6-dimethoxy-5-pyrimidinyl)-5-(2-furanyl)-4H-1,2,4-triazol-3-yl)ethanesulfonamide]",7.82

# — patent US10736883B2, “Triazole furan compounds as agonists of the APJ receptor” (AMGEN INC., priority 2016, dated 2020)
